This note sets out measurements from US10968222B2, “2-azabicyclo hexane JAK inhibitor compound” (THERAVANCE BIOPHARMA R&D IP, LLC, priority 2018, dated 2021).

Molecules are shown by their SMILES.

Test [1] concerns the target T1, EPHB6 (Homo sapiens, UniProt O15197).
T1 construct: made in house; host or cells: E. coli BL21-derived host (T7 phage) or HEK-293 cells
The test is described as follows: Kinome screen, EPHB6. Type of test: binding. The note with it: screened at 1 μM. The protocol: (§1) Compounds 1 and C-1 were screened against other kinases to evaluate their selectivity profile.
(§2) Kinase-tagged T7 phage strains were grown in parallel in 24-well blocks in an E. coli host derived from the BL21 strain. E. coli were grown to log-phase and infected with T7 phage from a frozen stock (multiplicity of infection=0.4) and incubated with shaking at 32° C. until lysis (90-150 minutes). The lysates were centrifuged (6,000×g) and filtered (0.2 μm) to remove cell debris. The remaining kinases were produced in HEK-293 cells and subsequently tagged with DNA for qPCR detection.
(§3) Streptavidin-coated magnetic beads were treated with biotinylated small molecule ligands for 30 minutes at room temperature to generate affinity resins for kinase assays. The liganded beads were blocked with excess biotin and washed with blocking buffer (SeaBlock (Pierce), 1% BSA, 0.05% Tween 20, 1 mM DTT) to remove unbound ligand and to reduce non-specific phage binding. Binding reactions were assembled by combining kinases, liganded affinity beads, and test compounds in 1× binding buffer (20% SeaBlock, 0.17×PBS, 0.05% Tween 20, 6 mM DTT). Test compounds were prepared as 40× stocks in 100% DMSO and directly diluted into the assay. All reactions were performed in polypropylene 384-well plates in a final volume of 0.04 ml. […] The kinase concentration in the eluates was measured by qPCR. […]

Test [2] has as its target T2, VEGFR2 (Homo sapiens, UniProt P35968).
T2 construct: made in house; host or cells: E. coli BL21-derived host (T7 phage) or HEK-293 cells
Briefly: Kinome screen, VEGFR2. In kind it is binding. The note with it: screened at 1 μM. The protocol: as §1, §2, §3

Test [3] has as its target T3, JAK1 (Homo sapiens, UniProt P23458).
T3 construct: GST; purchased Life Technologies
The test is described as follows: Biochemical JAK kinase assay (LanthaScreen), JAK1. The note with it: converted from pIC50 by Cheng-Prusoff; 25 μM ATP; read-out: JAK 1 pKi (converted). How it is done:
(§4) A panel of four LanthaScreen JAK biochemical assays (JAK1, 2, 3 and Tyk2) were carried in a common kinase reaction buffer (50 mM HEPES, pH 7.5, 0.01% Brij-35, 10 mM MgCl2, and 1 mM EGTA). Recombinant GST-tagged JAK enzymes and a GFP-tagged STAT1 peptide substrate were obtained from Life Technologies.
(§5) Serially diluted compound was pre-incubated with each of the four JAK enzymes and the substrate in white 384-well microplates (Corning) at ambient temperature for 1 h. ATP was subsequently added to initiate the kinase reactions in 10 μL total volume, with 1% DMSO. […] The plates were allowed to incubate at ambient temperature for 1 h before being read on the EnVision reader (Perkin Elmer). Emission ratio signals (520 nm/495 nm) were recorded and utilized to calculate the percent inhibition values based on DMSO and background controls.
(§6) For dose-response analysis, percent inhibition data were plotted vs. compound concentrations, and IC50 values were determined from a 4-parameter robust fit model with the Prism software (GraphPad Software). Results were expressed as pIC50 (negative logarithm of IC50) and subsequently converted to pKi (negative logarithm of dissociation constant, Ki) using the Cheng-Prusoff equation.
A general note: Time-resolved FRET reads energy transfer from a long-lived donor to a nearby acceptor.

In test [4] the target is T4, CDK2 (Homo sapiens, UniProt P24941).
T4 construct: made in house; host or cells: E. coli BL21-derived host (T7 phage) or HEK-293 cells
The test is described as follows: Kinome screen, CDK2. In kind it is binding. The note with it: screened at 1 μM. The protocol:
as §1, §2, §3

Test [5] concerns the target T5, AURKA (Homo sapiens, UniProt O14965).
T5 construct: made in house; host or cells: E. coli BL21-derived host (T7 phage) or HEK-293 cells
The test is described as follows: Kinome screen, AURKA. Type of test: binding. As to conditions: screened at 1 μM. The protocol: as §1, §2, §3

The subject of test [6] is IL-6 stimulated CCL2 (MCP-1) production in human PBMCs. The test is described as follows: Inhibition of IL-6 stimulated CCL2 (MCP-1) in human PBMCs. Type of test: cell-based. The note with it: PBMC, 48 h stimulation, ELISA, read-out: pIC50, inhibition of IL-6 stimulated CCL2 (MCP-1) (converted). The protocol:
The potency of the test compound for inhibition of interleukin-6 (IL-6) stimulated CCL2 (MCP-1) production was measured in human peripheral blood mononuclear cells (PBMCs) isolated from human whole blood (Stanford Blood Center). Because IL-6 signals through JAK, this assay provides a distal measure of JAK cellular potency.
(1) The protocol of Assay 4 paragraph (1) was followed up to the incubation with test compounds. In the present assay, after test compounds were added to wells and incubated, IL-6 (R&D Systems; final concentration 10 ng/ml) in pre-warmed assay media (50 μL) was added.
(2) After cytokine stimulation for 48 h, cells were centrifuged at 500 g for 5 min and supernatants were removed and frozen at −80° C. To determine the inhibitory potency of the test compound in response to IL-6, supernatant CCL2 (MCP-1) concentrations were measured via ELISA (R&D Systems). IC50 values were determined from analysis of the inhibition curves of concentration of CCL2/MCP-1 vs compound concentration. Data are expressed as pIC50 (negative decadic logarithm IC50) values.
Background: In an ELISA, binding on a coated surface is turned into a signal by an enzyme label.

Test [7] addresses T6, JAK2 (Homo sapiens, UniProt O60674).
T6 construct: GST; purchased Life Technologies
The test is described as follows: Biochemical JAK kinase assay (LanthaScreen), JAK2. As to conditions: converted from pIC50 by Cheng-Prusoff; 3 μM ATP; read-out: JAK 2 pKi (converted). The protocol:
as §4, §5, §6

T2 sequence (P35968 20-1356): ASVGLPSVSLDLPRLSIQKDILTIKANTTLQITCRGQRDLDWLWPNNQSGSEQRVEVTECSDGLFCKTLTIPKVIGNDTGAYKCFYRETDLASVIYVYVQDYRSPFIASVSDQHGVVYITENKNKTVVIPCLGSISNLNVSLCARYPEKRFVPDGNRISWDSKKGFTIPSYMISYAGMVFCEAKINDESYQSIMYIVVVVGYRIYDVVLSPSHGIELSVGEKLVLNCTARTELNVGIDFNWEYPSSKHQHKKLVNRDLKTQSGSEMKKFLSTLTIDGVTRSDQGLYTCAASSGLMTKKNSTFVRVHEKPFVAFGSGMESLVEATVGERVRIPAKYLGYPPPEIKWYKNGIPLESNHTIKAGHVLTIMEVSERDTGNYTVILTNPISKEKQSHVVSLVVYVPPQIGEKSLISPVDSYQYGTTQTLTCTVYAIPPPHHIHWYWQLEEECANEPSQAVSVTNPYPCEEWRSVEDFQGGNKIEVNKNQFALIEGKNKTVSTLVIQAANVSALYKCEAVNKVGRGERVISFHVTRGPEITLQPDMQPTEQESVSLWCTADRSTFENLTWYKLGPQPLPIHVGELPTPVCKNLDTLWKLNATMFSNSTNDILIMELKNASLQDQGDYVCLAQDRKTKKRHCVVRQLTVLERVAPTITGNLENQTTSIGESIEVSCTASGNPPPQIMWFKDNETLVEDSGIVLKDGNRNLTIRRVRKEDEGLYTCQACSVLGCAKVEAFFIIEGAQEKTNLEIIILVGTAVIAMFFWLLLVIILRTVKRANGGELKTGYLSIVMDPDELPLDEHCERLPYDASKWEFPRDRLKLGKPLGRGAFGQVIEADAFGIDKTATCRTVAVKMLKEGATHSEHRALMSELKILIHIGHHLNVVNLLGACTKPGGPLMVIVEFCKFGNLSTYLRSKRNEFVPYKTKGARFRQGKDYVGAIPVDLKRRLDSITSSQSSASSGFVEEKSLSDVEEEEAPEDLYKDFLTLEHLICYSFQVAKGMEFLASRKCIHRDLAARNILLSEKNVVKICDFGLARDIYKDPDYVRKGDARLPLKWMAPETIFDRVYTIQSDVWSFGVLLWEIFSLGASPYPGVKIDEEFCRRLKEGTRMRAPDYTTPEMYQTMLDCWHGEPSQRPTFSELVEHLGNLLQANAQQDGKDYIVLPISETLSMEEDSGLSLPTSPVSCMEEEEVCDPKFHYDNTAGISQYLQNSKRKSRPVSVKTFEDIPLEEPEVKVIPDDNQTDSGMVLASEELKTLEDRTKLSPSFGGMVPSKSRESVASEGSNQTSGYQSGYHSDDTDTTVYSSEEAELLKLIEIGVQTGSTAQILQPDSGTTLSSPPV
T1 sequence (O15197 32-1021): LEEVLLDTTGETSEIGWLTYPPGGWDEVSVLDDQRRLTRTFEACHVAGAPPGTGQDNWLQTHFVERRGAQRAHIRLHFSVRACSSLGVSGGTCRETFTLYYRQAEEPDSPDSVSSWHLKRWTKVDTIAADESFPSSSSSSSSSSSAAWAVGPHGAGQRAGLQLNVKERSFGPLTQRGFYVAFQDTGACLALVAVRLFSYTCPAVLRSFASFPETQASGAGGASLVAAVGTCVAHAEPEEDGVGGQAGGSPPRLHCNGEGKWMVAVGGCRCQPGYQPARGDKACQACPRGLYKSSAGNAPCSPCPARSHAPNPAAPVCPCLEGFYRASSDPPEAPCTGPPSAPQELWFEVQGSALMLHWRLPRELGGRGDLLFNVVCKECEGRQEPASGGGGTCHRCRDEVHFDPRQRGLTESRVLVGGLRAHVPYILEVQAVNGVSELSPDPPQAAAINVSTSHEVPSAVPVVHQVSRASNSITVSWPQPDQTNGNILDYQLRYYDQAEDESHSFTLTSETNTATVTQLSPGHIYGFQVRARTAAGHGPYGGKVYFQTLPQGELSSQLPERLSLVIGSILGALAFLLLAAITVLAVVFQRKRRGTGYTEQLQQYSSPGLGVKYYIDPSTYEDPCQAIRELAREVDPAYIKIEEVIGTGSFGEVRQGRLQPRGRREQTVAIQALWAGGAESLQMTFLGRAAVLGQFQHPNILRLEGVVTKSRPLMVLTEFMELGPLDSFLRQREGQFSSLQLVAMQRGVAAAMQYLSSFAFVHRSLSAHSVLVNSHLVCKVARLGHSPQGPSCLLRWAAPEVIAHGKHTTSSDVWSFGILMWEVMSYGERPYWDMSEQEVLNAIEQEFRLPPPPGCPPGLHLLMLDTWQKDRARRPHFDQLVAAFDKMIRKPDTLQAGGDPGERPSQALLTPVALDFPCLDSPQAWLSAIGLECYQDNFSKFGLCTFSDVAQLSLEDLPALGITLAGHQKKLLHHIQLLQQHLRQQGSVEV
T3 sequence (P23458 whole entry): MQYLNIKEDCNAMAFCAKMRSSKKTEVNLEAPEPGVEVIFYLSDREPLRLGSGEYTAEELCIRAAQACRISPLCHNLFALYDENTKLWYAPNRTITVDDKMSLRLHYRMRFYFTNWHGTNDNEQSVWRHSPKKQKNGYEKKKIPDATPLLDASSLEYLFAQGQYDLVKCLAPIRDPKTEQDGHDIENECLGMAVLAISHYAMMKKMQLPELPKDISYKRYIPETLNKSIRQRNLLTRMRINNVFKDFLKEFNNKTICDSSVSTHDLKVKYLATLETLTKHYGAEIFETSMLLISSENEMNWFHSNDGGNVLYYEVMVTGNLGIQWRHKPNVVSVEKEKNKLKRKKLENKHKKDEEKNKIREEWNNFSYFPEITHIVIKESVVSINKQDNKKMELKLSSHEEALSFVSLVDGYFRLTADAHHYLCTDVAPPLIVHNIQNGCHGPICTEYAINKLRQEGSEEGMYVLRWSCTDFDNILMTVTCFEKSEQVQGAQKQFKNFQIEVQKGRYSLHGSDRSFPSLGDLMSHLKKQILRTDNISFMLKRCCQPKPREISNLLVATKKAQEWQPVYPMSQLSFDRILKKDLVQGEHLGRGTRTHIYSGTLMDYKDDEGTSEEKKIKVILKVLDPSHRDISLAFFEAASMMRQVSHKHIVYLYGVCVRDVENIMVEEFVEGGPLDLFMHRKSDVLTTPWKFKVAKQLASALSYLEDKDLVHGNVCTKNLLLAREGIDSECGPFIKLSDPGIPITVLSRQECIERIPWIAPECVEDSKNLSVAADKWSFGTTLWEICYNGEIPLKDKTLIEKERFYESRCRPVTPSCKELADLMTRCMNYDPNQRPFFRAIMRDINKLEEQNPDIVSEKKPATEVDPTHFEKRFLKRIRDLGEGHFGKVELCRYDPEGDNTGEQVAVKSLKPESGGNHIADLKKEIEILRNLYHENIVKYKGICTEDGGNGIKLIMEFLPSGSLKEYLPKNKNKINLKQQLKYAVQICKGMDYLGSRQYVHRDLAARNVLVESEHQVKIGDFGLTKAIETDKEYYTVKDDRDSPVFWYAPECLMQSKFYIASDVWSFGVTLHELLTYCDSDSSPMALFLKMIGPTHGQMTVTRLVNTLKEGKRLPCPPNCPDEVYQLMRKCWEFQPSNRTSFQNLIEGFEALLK
T6 sequence (O60674 whole entry): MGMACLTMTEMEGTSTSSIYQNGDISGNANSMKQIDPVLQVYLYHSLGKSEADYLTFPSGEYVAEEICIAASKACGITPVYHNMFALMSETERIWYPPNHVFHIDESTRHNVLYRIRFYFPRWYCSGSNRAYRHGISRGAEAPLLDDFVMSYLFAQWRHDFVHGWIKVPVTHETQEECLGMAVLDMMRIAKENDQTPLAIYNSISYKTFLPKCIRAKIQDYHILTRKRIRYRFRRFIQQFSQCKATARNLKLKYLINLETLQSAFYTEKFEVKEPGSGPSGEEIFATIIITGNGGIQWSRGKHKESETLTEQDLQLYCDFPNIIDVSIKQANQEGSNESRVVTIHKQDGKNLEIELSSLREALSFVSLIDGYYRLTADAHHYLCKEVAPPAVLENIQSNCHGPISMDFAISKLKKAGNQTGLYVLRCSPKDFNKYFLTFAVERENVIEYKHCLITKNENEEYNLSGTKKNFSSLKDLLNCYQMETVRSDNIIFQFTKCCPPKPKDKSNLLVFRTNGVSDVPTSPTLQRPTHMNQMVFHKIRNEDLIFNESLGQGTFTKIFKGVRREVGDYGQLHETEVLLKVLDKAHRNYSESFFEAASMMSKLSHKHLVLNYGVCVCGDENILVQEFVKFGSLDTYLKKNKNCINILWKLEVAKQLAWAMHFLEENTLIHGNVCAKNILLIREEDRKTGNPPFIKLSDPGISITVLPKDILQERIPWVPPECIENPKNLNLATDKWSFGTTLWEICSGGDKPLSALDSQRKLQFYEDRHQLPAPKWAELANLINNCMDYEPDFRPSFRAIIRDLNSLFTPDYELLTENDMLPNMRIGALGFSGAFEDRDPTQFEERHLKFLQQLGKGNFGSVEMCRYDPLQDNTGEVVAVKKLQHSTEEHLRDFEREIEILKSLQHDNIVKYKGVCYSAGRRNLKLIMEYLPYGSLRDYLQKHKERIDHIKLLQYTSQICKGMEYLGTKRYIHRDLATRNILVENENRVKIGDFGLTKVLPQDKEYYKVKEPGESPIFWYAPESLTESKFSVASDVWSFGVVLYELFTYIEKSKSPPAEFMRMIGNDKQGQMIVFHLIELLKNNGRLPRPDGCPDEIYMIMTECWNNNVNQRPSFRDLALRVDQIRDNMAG
T5 sequence (O14965 whole entry): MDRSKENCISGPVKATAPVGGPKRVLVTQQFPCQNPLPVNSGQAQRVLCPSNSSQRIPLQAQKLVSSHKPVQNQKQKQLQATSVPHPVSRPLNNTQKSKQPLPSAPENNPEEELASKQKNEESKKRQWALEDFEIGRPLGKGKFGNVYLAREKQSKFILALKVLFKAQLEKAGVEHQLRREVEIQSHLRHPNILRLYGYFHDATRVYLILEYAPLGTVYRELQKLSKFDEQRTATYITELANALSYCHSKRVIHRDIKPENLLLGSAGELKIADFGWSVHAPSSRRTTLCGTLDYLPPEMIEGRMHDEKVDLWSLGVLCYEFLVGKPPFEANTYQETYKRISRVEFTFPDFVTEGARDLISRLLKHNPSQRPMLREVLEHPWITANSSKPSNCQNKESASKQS

What is called inhibition is the drop in the measured response relative to a control, in per cent. Turning to `CCc1cc(O)c(F)cc1-c1cc(F)c2c(-c3nc4c([nH]3)CCN(C(=O)[C@]35C[C@H]3CCN5)C4)n[nH]c2c1` [Compound 1, (1S,5R)-2-azabicyclo[3.1.0]hexan-1-yl(2-(6-(2-ethyl-5-fluoro-4-hydroxyphenyl)-4-fluoro-1H-indazol-3-yl)-6,7-dihydro-3H-imidazo[4,5-c]pyridin-5(4H)-yl)methanone], the inhibition at 1 µM in test [1] amounted to 85%; in test [2], 47%; in test [4] it was 1%; in test [5], 26%. For the same compound, the Ki in test [3] is 0.126 nM; in test [7] it was 0.0631 nM. In addition, the IC50 in test [6] is 316 nM.
